Reference: paper PMC8512844, “Olive Pomace Phenolic Compounds Stability and Safety Evaluation: From Raw Material to Future Ophthalmic Applications” (Molecules, 2021)

Columns and labels:
[1] = Long-term storage stability of aqueous solutions (CPMP/ICH/2736/99), HPLC-DAD relative quantification; type: physicochemical; details: for kobs (first-order degradation rate constant) / t1/2 (half-time period) / tlag (lag time): pure aqueous solution; for stability as pure solution: first 30 days
Method: According to the guidance CPMP/ICH/2736/99, aqueous solutions of HT, OL, OPT3 extract, and CONV extract were stored at four different conditions of temperature (ambient, refrigerated, […], and intermediate) and humidity. The conditions were: T = 5 ± 3 °C (with no humidity), T = 25 ± 2 °C (with 60 ± 5% RH), T = 30 ± 2 °C (with 65 ± 5% RH) and T = 40 ± 2 °C (with 75 ± 5% RH) up to a final duration of 6 months. For OPT3, HT was relatively quantified as % with respect to the concentration (C0) at the initial time (t0), while for CONV both % HT and % OL content were calculated similarly. […] The stability of up to 6 months is presented in the Figure S1 of the Supplementary Material. […] The lag time (tlag) represents the time that the concentration of the compound remains constant and, if present, is determined as the intercept of the initial degradation time with the initial concentration value. The half-life period (t1/2) is calculated from Equation (2). The degradation constant (kobs), the t1/2, and the time lag (tlag) together with the correlation coefficient (R^2) for each compound and storage condition are presented in Table 5. ln(C0/Ct) = kobs(t - tlag)(1) t1/2 = ln(2)/k + tlag(2) The quantitative determination of HT, TY, and OL was performed by an HPLC-DAD system: Waters e2695 separation module with an autosampler (20 μL injection volume) and a quaternary pump, coupled with Waters 2998 photodiode array detector set at 280 nm (Waters®, Dublin, Ireland). A C18 Mediterranean Sea column (250 × 4.6 mm, 5 μm) (Teknokroma Analítica S.A., Barcelona, Spain) at 35 °C connected with an OptiGuard 1 mm guard column (Sigma-Aldrich, St. Louis, MO, USA) were used. The gradient method, together with the eluents and the elution program used, were selected according to […] et al.. Calibration curves for OL (range: 12.5-1250 mg/L, linearity: […] R^2 = 0.9969) were prepared, using standard solutions of the compounds in DMSO, and analyzed in the same conditions as the samples. Compounds in the extracts were identified by comparing the retention time and the UV spectra of the samples with those of the standard solutions, while MS spectra were also used to confirm identification (see 3.7.1. for experimental conditions). […] Samples and calibration curves of standard solutions were analyzed within the same day. For the 6-months storage stability, relative quantification was performed with respect to the initial quantity t0 of each analyte. For data acquisition and processing, Empower® 3 software (Waters®, Dublin, Ireland) was used. Briefly, all compounds and extracts were dissolved in Milli-Q water, as high mineralization could increase the degradation of these substances. Additionally, according to the bibliography, lower concentrations could accelerate the decomposition of a compound. […] All solutions were filtered through a 0.20 μm polyvinylidene fluoride filter. […] To fix the desired humidity for each temperature, appropriate salts have been used according to the bibliography. […] The vials were placed in big glass containers, together with a sufficient quantity of each salt. Then, they were closed airtight and left in different rooms of controlled temperature and protected from light for 6 months. […] For CONV, HT and OL content were measured, while for OPT3 only HT content was calculated due to the lack of OL in this extract. All samples were analyzed in triplicate and the results are expressed as mean of the percentage with respect to the initial concentration t0 ± SD.

[2] = test system: human corneal epithelial (HCE) cells; test: In vitro genotoxicity, alkaline comet assay; type: cell-based; details: 24 h, 0.8 mg/mL CONV, 0.4 mg/mL OPT3, 300 μM OL, 100 μM HT, 5 μM + 50 μM OL+HT
Source text: (§1) According to the ICH guideline S2 (R1), comet assay evaluates the cell DNA damage under a neutral or alkaline electrophoretic field. This leads to the separation between intact and damaged cellular DNA, creating the typical “comet tail” visible from a microscope. By measuring this tail, the extent of the DNA damage can be estimated. In this study, we applied alkaline electrophoresis, because it is more sensitive and can detect smaller amounts of DNA damages, including single and double-stranded DNA breaks, alkali labile DNA adducts, and most oxidative DNA damage.
(§2) Two different human ocular surface cell lines were selected for this assay: HCE and the IM-ConjEpi. The two selected OP extracts (CONV and OPT3) were tested for their in vitro genotoxicity on both cell lines, together with the two principal pure olive compounds OL and HT, alone or in combination (OL+HT). For each compound or extract, the maximum allowable concentration was selected to be tested, based on the results of their in vitro cytotoxicity on the same cell lines, as previously described.
(§3) HCE is an immortalized human corneal epithelial cell line, kindly offered by Dr. Arto Urti (University of Helsinki, Finland). It was cultured in DMEM/F-12 + GlutaMax supplemented with 10% fetal bovine serum, 10 ng/mL human epithelial growth factor, 5 μg/mL human insulin and antibiotics (100 U/mL penicillin + 0.1 mg/mL streptomycin). IM-ConjEpi was supplied by Innoprot (Derio, Spain. Ref. P10870-IM) and is an SV40- Large T Antigen immortalized human conjunctival epithelial cell line. It was cultured in DMEM/F-12 + GlutaMax supplemented with 10% fetal bovine serum, 10 ng/mL human epithelial growth factor, 1 μg/mL bovine insulin and antibiotics ([…]). HCE cell line was used from passage 25 to 35, while IM-ConjEpi from passage 10 to 20.
(§4) The cells were incubated at 37 °C and 5:95 = CO2:air atmosphere ratio, while their medium was changed every second day. Observations through a phase-contrast microscope were carried out daily.
(§5) For the in vitro tests, HT, OL, CONV, and OPT3 were dissolved in culture medium (DMEM/F-12 + GlutaMax, without any supplement) the day of the experiment. As previously described, CONV was produced by conventional solid–liquid extraction using freeze-dried material without any further pretreatment. OPT3 was generated by PLE extraction using freeze-dried material previously defatted with scCO2. The part of the extracts not dissolved to the culture medium was filtered through a 0.20 μm polyvinylidene fluoride sterile filter. The in vitro concentrations were selected according to a previous study, which described the maximum allowable non-toxic concentration of HT, OL, CONV, and OPT3 on the two ocular surface cell lines used. […]

[3] = test system: immortalized human conjunctival epithelial (IM-ConjEpi) cells; test: In vitro genotoxicity, alkaline comet assay; type: cell-based; details: 24 h, 0.8 mg/mL CONV, 0.4 mg/mL OPT3, 300 μM OL, 100 μM HT, 5 μM + 50 μM OL+HT
Source text: as §1, §2, §3, §4, §5

kobs (first-order degradation rate constant) ([1]; T = 5 °C/no humidity) [day⁻¹] | t1/2 (half-time period) ([1]; T = 5 °C/no humidity) [days] | tlag (lag time) ([1]; T = 5 °C/no humidity) [days] | kobs (first-order degradation rate constant) ([1]; T = 25 °C/60% RH) [day⁻¹] | t1/2 (half-time period) ([1]; T = 25 °C/60% RH) [days] | tlag (lag time) ([1]; T = 25 °C/60% RH) [days] | kobs (first-order degradation rate constant) ([1]; T = 30 °C/65% RH) [day⁻¹] | t1/2 (half-time period) ([1]; T = 30 °C/65% RH) [days] | tlag (lag time) ([1]; T = 30 °C/65% RH) [days] | kobs (first-order degradation rate constant) ([1]; T = 40 °C/75% RH) [day⁻¹] | t1/2 (half-time period) ([1]; T = 40 °C/75% RH) [days] | tlag (lag time) ([1]; T = 40 °C/75% RH) [days] | SMILES | Genotoxic effect (%TDNA) versus control group [2] | Genotoxic effect (%TDNA) versus control group [3] | other results
0.0069 | 101.5 | 1.0 | 0.0337 | 21.6 | 1.0 | 0.1068 | 6.5 | 0 | 0.1234 | 5.6 | 0 | OCCc1ccc(O)c(O)c1 [HT, hydroxytyrosol] | No statistically significant differences | No statistically significant differences | stability as standard solution ([1]; 5 °C, first month): stable at a high percentage for the entire month; time from which the standard solution is completely degraded ([1]; 25 °C): fourth month; time from which the standard solution is completely degraded ([1]; 30 °C and 40 °C): third month
0.0099 | 81.3 | 11.3 | 0.0065 | 116.5 | 9.9 | 0.4022 | 1.7 | 0 | 0.3658 | 1.9 | 0 | C/C=C1/[C@H](O[C@@H]2O[C@H](CO)[C@@H](O)[C@H](O)[C@H]2O)OC=C(C(=O)OC)[C@H]1CC(=O)OCCc1ccc(O)c(O)c1 [OL, oleuropein] | No statistically significant differences | No statistically significant differences | stability as pure solution ([1]; 5 °C or 25 °C): remains at high levels; stability as standard solution ([1]; 25 °C or below): stable for up to 1 month; half-life at 113 mg/L ([1]; aqueous solution of the pure compound, pure solution, temperature above 30 °C, read-out: t1/2 (time to reduce the concentration to half of the initial value) (converted)): ~72 h; time the compound remains stable ([1]; pure solution, temperature values below 25 °C): approximately 11 days; final content compared to t0 ([1]; standard solution, 5 °C and 25 °C, 6 months): ca. 35%; stability as pure solution ([1]; temperature values above 30 °C): highly unstable
